# From ChEMBL document CHEMBL4725277, “Synthetic and therapeutic perspectives of nitrogen containing heterocycles as anti-convulsants” (Bioorg Med Chem, 2020)
# How the values were obtained:
# [1] = Neurotoxicity in ip injected albino mouse; assay type: toxicity, organism-based; settings: in vivo
# [2] = Protective index, ratio of TD50 for neurotoxicity in ip injected albino mouse to ED50 for anticonvulsant activity in ip injected albino mouse assessed as protection against 50 mA current-induced seizure; assay type: toxicity, organism-based; settings: in vivo
# Mus musculus [3] = assay: Anticonvulsant activity in ip injected albino mouse assessed as protection against 50 mA current-induced seizure by maximal electroshock seizure test; assay type: functional
# Mus musculus [4] = assay: Anticonvulsant activity in albino mouse assessed as protection against 50 mA current-induced seizure at 50 mg/kg by maximal electroshock seizure test relative to control; assay type: functional
# Mus musculus [5] = assay: Anticonvulsant activity in albino mouse assessed as protection against 50 mA current-induced seizure at 100 mg/kg by maximal electroshock seizure test relative to control; assay type: functional
# Mus musculus [6] = assay: Anticonvulsant activity in albino mouse assessed as protection against 50 mA current-induced seizure at 200 mg/kg by maximal electroshock seizure test relative to control; assay type: functional
# Mus musculus [7] = species on record: Mus musculus; assay: Anticonvulsant activity in albino mouse assessed as protection against 50 mA current-induced seizure; assay type: functional; settings: read-out: PD50
# [8] = Neurotoxicity in albino rat at 100 mg/kg, ip after 30 mins (reference value: 2%); assay type: toxicity, organism-based; settings: in vivo, 0.5 h
# Mus musculus [9] = species on record: Mus musculus; assay: Anticonvulsant activity in albino mouse assessed as pentylenetetrazole-induced seizure measured after 30 mins; assay type: functional; settings: 0.5 h
# Mus musculus [10] = assay: Anticonvulsant activity in ip injected albino mouse assessed as protection against 50 mA current-induced seizure after 0.5 to 4 hrs interval by maximal electroshock seizure test; assay type: functional; settings: time hrs 0.5-4
# Mus musculus [11] = species on record: Mus musculus; assay: Anticonvulsant activity in albino mouse assessed as pentylenetetrazole-induced seizure; assay type: functional
# [12] = Protective index, ratio of TD50 for neurotoxicity in ip injected albino mouse to ED50 for anticonvulsant activity in albino mouse assessed as pentylenetetrazole-induced seizure; assay type: toxicity, organism-based; settings: in vivo
# Mus musculus [13] = species on record: Mus musculus; assay: Anticonvulsant activity in mouse assessed as protection against current-induced seizure by maximal electroshock seizure test; assay type: functional
# [14] = Neurotoxicity in mouse by rotarod test; assay type: toxicity; settings: in vivo
# Mus musculus [15] = species on record: Mus musculus; assay: Anticonvulsant activity in KunMing mouse assessed as protection against 50 mA current-induced seizure after 30 mins interval by maximal electroshock seizure test; assay type: functional; settings: 0.5 h
# [16] = Neurotoxicity in KunMing mouse after 30 mins by rotarod test; assay type: toxicity; settings: in vivo
# Mus musculus [17] = species on record: Mus musculus; assay: Anticonvulsant activity in KunMing mouse assessed as protection against 50 mA current-induced seizure after 0.5 to 4 hrs by maximal electroshock seizure test; assay type: functional; settings: time hrs 0.5-4
# Mus musculus [18] = species on record: Mus musculus; assay: Anticonvulsant activity in KunMing mouse assessed as protection against current-induced seizure by maximal electroshock seizure test; assay type: functional
# Mus musculus [19] = assay: Anticonvulsant activity in albino mouse assessed as protection against 50 mA current-induced seizure at 10 mg/kg by maximal electroshock seizure test relative to control; assay type: functional
# Mus musculus [20] = assay: Anticonvulsant activity in albino mouse assessed as protection against 50 mA current-induced seizure at 20 mg/kg by maximal electroshock seizure test relative to control; assay type: functional
# Mus musculus [21] = assay: Anticonvulsant activity in albino mouse assessed as protection against 50 mA current-induced seizure at 30 mg/kg by maximal electroshock seizure test relative to control; assay type: functional
# Mus musculus [22] = species on record: Mus musculus; assay: Anticonvulsant activity in albino mouse assessed as current-induced seizure relative to control; assay type: functional
# Mus musculus [23] = species on record: Mus musculus; assay: Anticonvulsant activity in albino mouse assessed as current-induced seizure latency time; assay type: functional
# Mus musculus [24] = species on record: Mus musculus; assay: Anticonvulsant activity in KunMing mouse assessed as protection against pentylenetetrazole-induced seizure by maximal electroshock seizure test; assay type: functional
# [25] = Neurotoxicity in KunMing mouse by rotarod test; assay type: toxicity; settings: in vivo
# [26] = Protective index, ratio of TD50 for neurotoxicity in mouse to ED50 for anticonvulsant activity in mouse assessed as protection against current-induced seizure; assay type: toxicity; settings: in vivo, read-out: PI
# [27] = Protective index, ratio of TD50 for neurotoxicity in mouse to ED50 for anticonvulsant activity in mouse assessed as protection against pentylenetetrazole-induced seizure; assay type: toxicity; settings: in vivo, read-out: PI
# [28] = Protective index, ratio of TD50 for neurotoxicity in mouse to ED50 for anticonvulsant activity in mouse assessed as protection against 50 mA current-induced seizure; assay type: toxicity; settings: in vivo, read-out: PI
# Mus musculus [29] = assay: Anticonvulsant activity in albino mouse assessed as protection against 50 mA current-induced seizure at 25 mg/kg by maximal electroshock seizure test relative to control; assay type: functional
smiles,measurement,setting,value
Nc1nnc(C(=O)N2CCCC2c2noc3cc(F)ccc23)c(N)n1 (centres undefined),TD50,[1],> 200 mg/kg
same,selectivity ratio,[2]; read-out: Ratio,> 28.2
same,ED50,Mus musculus [3],7.1 mg/kg
O=C1CN=C2c3ccccc3N=C(COc3ccc(Cl)cc3Cl)N2N1,Activity,Mus musculus [4],60%
same,Activity,Mus musculus [5],90%
same,Activity,Mus musculus [6],90%
same,ED50,Mus musculus [7],87.5 mg/kg
CN(C)CCOc1ccc2c(c1)/C(=N/NC(N)=O)C(=O)N2,Activity,[8],7%
O=C1NC(=O)C(c2ccccc2)(c2ccccc2)N1 [PHENYTOIN],ED50,Mus musculus [9],> 100 mg/kg
same,ED50,Mus musculus [10],8.8 mg/kg
same,ED50,Mus musculus [11],> 300 mg/kg
COc1ccc(N2C(=S)N=C(c3ccccc3)CC2c2ccccc2)cc1 (centres undefined),ED50,Mus musculus [9],378 mg/kg
same,ED50,Mus musculus [10],16.8 mg/kg
same,TD50,[1],534 mg/kg
same,selectivity ratio,[2]; read-out: PI,31.8
same,selectivity ratio,[12]; read-out: PI,1.4
Nc1ccc(Cl)cc1-c1n[nH]c(=O)n(-c2ccc(O)cc2)c1=O,TD50,[1],682 mg/kg
same,selectivity ratio,[2]; read-out: Ratio,13.6
same,selectivity ratio,[12]; read-out: Ratio,7.15
same,ED50,Mus musculus [3],51.1 mg/kg
same,ED50,Mus musculus [11],95.3 mg/kg
S=C1N=C(c2ccccc2)CC(c2ccccc2)N1c1ccc(Cl)cc1 (centres undefined),ED50,Mus musculus [9],312 mg/kg
same,ED50,Mus musculus [10],19.4 mg/kg
same,TD50,[1],420 mg/kg
same,selectivity ratio,[2]; read-out: PI,21.6
same,selectivity ratio,[12]; read-out: PI,1.3
CCCC(CCC)C(=O)[O-].[Na+] [VALPROATE SODIUM],ED50,Mus musculus [10],272 mg/kg
same,TD50,[1],42.6 mg/kg
NC(=O)N1c2ccccc2C=Cc2ccccc21 [CARBAMAZEPINE],ED50,Mus musculus [9],> 100 mg/kg
same,ED50,Mus musculus [10],8.8 mg/kg
same,TD50,[1],65.5 mg/kg
same,ED50,Mus musculus [11],> 100 mg/kg
same,ED50,Mus musculus [13],11.8 mg/kg
same,TD50,[14],11.8 mg/kg
same,ED50,Mus musculus [15],10.1 mg/kg
same,TD50 at 0.5 h,[16],69.1 mg/kg
same,ED50,Mus musculus [17],9.8 mg/kg
same,ED50,Mus musculus [18],11.8 mg/kg
CCC1(c2ccccc2)C(=O)NC(=O)NC1=O [PHENOBARBITAL],Activity,Mus musculus [19],40%
same,Activity,Mus musculus [20],60%
same,Activity,Mus musculus [21],100%
same,ED50,Mus musculus [7],14.4 mg/kg
same,ED50,Mus musculus [13],21.8 mg/kg
same,ED50,Mus musculus [17],21.8 mg/kg
CC(=O)Oc1cc2ccccc2cc1-c1nnc(N(C(C)=O)c2cccc(F)c2)s1,Activity,Mus musculus [22],70%
same,Time,Mus musculus [23],4.41 min
CCC1(C)CC(=O)NC1=O (centres undefined) [ETHOSUXIMIDE],selectivity ratio,[2]; read-out: Ratio,< 0.44
same,selectivity ratio,[12]; read-out: Ratio,3.39
same,ED50,Mus musculus [3],> 1000 mg/kg
same,ED50,Mus musculus [11],130 mg/kg
same,ED50,Mus musculus [24],106 mg/kg
same,TD50,[25],343 mg/kg
O=C(CNC(=O)c1ccncc1)Nn1c(COc2ccc(Cl)cc2Cl)nc2ccccc2c1=O,Activity,Mus musculus [4],50%
same,Activity,Mus musculus [5],70%
same,Activity,Mus musculus [6],80%
same,ED50,Mus musculus [7],103 mg/kg
Cc1ccc(NC(=S)N2C(=S)N=C(c3ccccc3)CC2c2ccc(O)cc2)cc1 (centres undefined),ED50,Mus musculus [11],278 mg/kg
same,ED50,Mus musculus [13],15.6 mg/kg
same,TD50,[14],534 mg/kg
same,selectivity ratio,[26],34.2
same,selectivity ratio,[27],1.9
O=c1[nH]nc2n1-c1ccc(OCc3ccc(F)cc3)cc1SCC2,selectivity ratio,[28],12.6
same,TD50,[14],331 mg/kg
same,ED50,Mus musculus [17],26.3 mg/kg
CCCCOc1ccc2c(c1)sc1n[nH]c(=O)n12,ED50,Mus musculus [13],13.6 mg/kg
same,TD50,[14],> 700 mg/kg
same,selectivity ratio,[26],> 51
Clc1ccc(Oc2cccc3nncn23)cc1,ED50,Mus musculus [13],13.2 mg/kg
same,TD50,[14],63.4 mg/kg
same,selectivity ratio,[26],4.8
CN(C)Nc1ccc(/C=N/Nc2nnc(-c3ccccc3)nc2Cc2cccc(Cl)c2)cc1,ED50,Mus musculus [9],92 mg/kg
same,ED50,Mus musculus [10],54.3 mg/kg
same,TD50,[1],435 mg/kg
same,selectivity ratio,[2]; read-out: Ratio,8.01
same,selectivity ratio,[12]; read-out: Ratio,4.73
Nc1nc(-c2ccccc2)nnc1C(=O)N1CCCC1c1noc2cc(Br)ccc12 (centres undefined),TD50,[1],> 100 mg/kg
same,selectivity ratio,[2]; read-out: Ratio,> 8.22
same,ED50,Mus musculus [3],12.2 mg/kg
Clc1ccc(Nc2nnc(-c3ccncc3)o2)cc1,Activity,Mus musculus [29],100%
